# Test results from article PMC8619914, “Development of Novel Peptides for the Antimicrobial Combination Therapy against Carbapenem-Resistant Acinetobacter baumannii Infection” (Pharmaceutics, 2021).
# Where no end group is shown, it is not given here.
# Columns and labels:
# [1] = test system: Gram-negative bacterial strains; test: organism not typed; conditions: seven Gram-negative strains; 256 assumed for MIC > 128 and 1024 for MIC > 512 μg·mL^−1
# From the text: (§1) The Gram-negative bacterial strain Escherichia coli (KCTC 1682) and Gram-positive bacterial strain Staphylococcus aureus (KCTC 1621) were purchased from the Korean Collection for Type Cultures (Jeongeup, Korea). Acinetobacter baumannii (KCCM 40203) were purchased from Korea Culture Center of Microorganisms (Seoul, Korea). Additionally, five carbapenem-resistant Acinetobacter baumanii C1–C5 (CRAB C1–C5), which have the OXA-23 gene with carbapenem-resistance were collected from the patients with CRAB bacteremia, who presented symptoms and signs of infection at Korea University Anam Hospital (Seoul, Korea) (IRB registration no. 2020AN0157). The minimum inhibitory concentrations (MIC) of the AMP and antibiotics against the various bacterial strains were assessed using the serial dilution method on Muller–Hinton (MH) media, as described previously. […] Absorbance at 600 nm was measured using a SpectraMAX microplate reader (Molecular Devices, San Jose, CA, USA).
# Geometric means (GM) were calculated to compare the relative antimicrobial activities of the analogs against Gram-negative bacteria. […] Next, the antibacterial mechanisms of peptides were investigated.
# CRAB C1 = test: microbe, parasite or virus in culture; conditions: MH media, 2 × 10^5 CFU·mL^−1, 37 °C, 16 h, absorbance 600 nm
# From the text: as §1
# (§2) Measurement of the minimum inhibitory concentrations (MIC) was conducted to determine the effect of the hydrophobicity of each antimicrobial peptide on its antimicrobial activity. MIC was defined as the minimum concentration that killed more than 99% of bacteria; it was measured against two standard Gram-negative bacteria (E. coli and A. baumanii), five clinically isolated CRAB (C1–C5), and one Gram-positive bacteria (S. aureus).
# CRAB C5 = test: microbe, parasite or virus in culture; conditions: MH media, 2 × 10^5 CFU·mL^−1, 37 °C, 16 h, absorbance 600 nm
# From the text: as §1, §2
# [2] = test system: Escherichia coli (KCTC 1682); test: microbe, parasite or virus in culture; conditions: MH media, 2 × 10^5 CFU·mL^−1, 37 °C, 16 h, absorbance 600 nm; MIC kills more than 99% of bacteria
# From the text: as §1, §2
# CRAB C3 = test: microbe, parasite or virus in culture; conditions: MH media, 2 × 10^5 CFU·mL^−1, 37 °C, 16 h, absorbance 600 nm
# From the text: as §1, §2
# [3] = test system: Acinetobacter baumannii (KCCM 40203); test: microbe, parasite or virus in culture; conditions: KCCM 40203, 16 h
# From the text: as §1, §2
# CRAB C2 = test: microbe, parasite or virus in culture; conditions: MH media, 2 × 10^5 CFU·mL^−1, 37 °C, 16 h, absorbance 600 nm
# From the text: as §1, §2
# CRAB C4 = test: microbe, parasite or virus in culture; conditions: MH media, 2 × 10^5 CFU·mL^−1, 37 °C, 16 h, absorbance 600 nm
# From the text: as §1, §2
# [4] = test system: Staphylococcus aureus (KCTC 1621); test: microbe, parasite or virus in culture; conditions: KCTC 1621, 16 h
# From the text: as §1, §2
Substance,GM (mean MIC of Gram-negative bacterial strains) [1] [µg/mL],"Minimum Inhibitory Concentration, CRAB C1 (CRAB C1) [µg/mL]","Minimum Inhibitory Concentration, CRAB C5 (CRAB C5) [µg/mL]","Minimum Inhibitory Concentration, E. coli [2] [µg/mL]","Minimum Inhibitory Concentration, CRAB C3 (CRAB C3) [µg/mL]","Minimum Inhibitory Concentration, A. baumanii [3] [µg/mL]","Minimum Inhibitory Concentration, CRAB C2 (CRAB C2) [µg/mL]","Minimum Inhibitory Concentration, CRAB C4 (CRAB C4) [µg/mL]","Minimum Inhibitory Concentration, S.aureus [4] [µg/mL]"
RWKIFKKIPKFLHSAKKA-NH2 [PapMA-2],146,128,128,64,64,128,>128,>128,>128
RWKIFKKIPKFLHSAKKF-NH2 [PapMA],34,32,32,32,16,32,32,64,64
RWKIFKKIPKFLHSFKKF-NH2 [PapMA-4],10,8,8,16,8,8,8,16,32
RWKIFKKIPKFLHSWKKF-NH2 [PapMA-5],18,16,16,16,16,16,16,32,32
RWKIFKKIPKFLHSWKKW-NH2 [PapMA-6],11,8,16,16,8,8,8,16,32
